The assay addresses Sodium channel protein type 9 subunit alpha (Homo sapiens, UniProt Q15858). In words: Inhibition of human Nav1.7 expressed in HEK293 cells at holding potential of -125 mV […] by patchxpress-based electrophysiology assay. The class given is cell-based.

The results in this text go back to ChEMBL document CHEMBL4152382, “Discovery of Tarantula Venom-Derived NaV1.7-Inhibitory JzTx-V Peptide 5-Br-Trp24 Analogue AM-6120 with Systemic Block of Histamine-Induced Pruritis” (J Med Chem, 2018).

Sequence of Sodium channel protein type 9 subunit alpha (Q15858 whole entry): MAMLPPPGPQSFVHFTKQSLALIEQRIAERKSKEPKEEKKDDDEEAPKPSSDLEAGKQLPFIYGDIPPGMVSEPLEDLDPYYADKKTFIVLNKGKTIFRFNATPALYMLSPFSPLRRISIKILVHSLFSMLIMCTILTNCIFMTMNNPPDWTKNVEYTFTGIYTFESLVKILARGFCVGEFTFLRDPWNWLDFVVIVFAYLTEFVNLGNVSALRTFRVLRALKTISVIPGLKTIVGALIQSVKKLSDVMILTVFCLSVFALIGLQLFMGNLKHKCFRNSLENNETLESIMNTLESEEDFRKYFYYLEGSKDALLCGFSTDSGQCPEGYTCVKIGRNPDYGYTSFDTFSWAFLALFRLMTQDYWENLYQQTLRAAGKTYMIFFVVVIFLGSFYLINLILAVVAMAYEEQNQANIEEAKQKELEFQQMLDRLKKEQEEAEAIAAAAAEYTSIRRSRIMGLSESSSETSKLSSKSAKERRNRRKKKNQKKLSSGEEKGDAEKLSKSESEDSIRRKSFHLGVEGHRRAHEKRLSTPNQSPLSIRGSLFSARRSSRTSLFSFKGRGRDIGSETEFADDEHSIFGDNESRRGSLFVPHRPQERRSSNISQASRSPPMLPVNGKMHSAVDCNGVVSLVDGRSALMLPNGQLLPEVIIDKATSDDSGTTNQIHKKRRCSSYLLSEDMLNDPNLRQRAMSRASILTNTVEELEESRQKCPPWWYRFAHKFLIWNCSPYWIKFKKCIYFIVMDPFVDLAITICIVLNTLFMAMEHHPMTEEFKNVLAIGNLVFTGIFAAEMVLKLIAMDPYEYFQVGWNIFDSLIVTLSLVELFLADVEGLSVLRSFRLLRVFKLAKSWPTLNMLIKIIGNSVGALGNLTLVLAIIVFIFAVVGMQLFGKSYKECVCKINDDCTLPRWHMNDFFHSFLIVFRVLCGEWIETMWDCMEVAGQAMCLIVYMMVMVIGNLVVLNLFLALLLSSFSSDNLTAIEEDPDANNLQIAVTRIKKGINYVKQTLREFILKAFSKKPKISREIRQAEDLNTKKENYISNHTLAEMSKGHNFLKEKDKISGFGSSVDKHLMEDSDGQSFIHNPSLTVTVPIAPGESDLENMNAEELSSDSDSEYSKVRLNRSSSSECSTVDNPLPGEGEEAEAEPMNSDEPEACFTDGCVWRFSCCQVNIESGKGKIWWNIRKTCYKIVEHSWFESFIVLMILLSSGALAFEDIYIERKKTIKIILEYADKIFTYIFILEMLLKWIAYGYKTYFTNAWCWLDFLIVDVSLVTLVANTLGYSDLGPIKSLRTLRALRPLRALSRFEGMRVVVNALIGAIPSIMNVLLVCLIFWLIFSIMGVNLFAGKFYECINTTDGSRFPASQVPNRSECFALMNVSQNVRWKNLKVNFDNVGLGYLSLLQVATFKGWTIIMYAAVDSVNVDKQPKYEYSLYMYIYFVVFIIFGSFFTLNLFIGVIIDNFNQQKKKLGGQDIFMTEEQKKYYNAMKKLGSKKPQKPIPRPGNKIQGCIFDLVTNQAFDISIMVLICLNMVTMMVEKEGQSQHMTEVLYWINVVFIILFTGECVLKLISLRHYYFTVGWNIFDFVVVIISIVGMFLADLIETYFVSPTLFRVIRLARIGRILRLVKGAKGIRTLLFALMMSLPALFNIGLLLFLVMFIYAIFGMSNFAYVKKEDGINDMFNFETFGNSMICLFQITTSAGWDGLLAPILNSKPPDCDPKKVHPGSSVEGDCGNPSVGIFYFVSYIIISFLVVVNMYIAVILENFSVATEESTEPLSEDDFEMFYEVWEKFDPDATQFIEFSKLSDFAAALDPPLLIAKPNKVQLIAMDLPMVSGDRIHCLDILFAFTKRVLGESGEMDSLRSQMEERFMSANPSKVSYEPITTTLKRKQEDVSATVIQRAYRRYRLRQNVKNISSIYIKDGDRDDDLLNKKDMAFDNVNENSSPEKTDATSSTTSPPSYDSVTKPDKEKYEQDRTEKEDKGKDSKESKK

Molecule `C#CC[C@H](N)C(=O)N[C@@H](Cc1ccc(O)cc1)C(=O)N[C@H]1CSSC[C@@H]2NC(=O)[C@@H]3CSSC[C@@H](C(=O)N[C@@H](CCCNC(=N)N)C(=O)N[C@@H](CCCCN)C(=O)N[C@@H](CCC(=O)O)C(=O)N[C@H](C(N)=O)[C@@H](C)CC)NC(=O)[C@H](Cc4c[nH]c5ccccc45)NC(=O)[C@H]([C@@H](C)CC)NC(=O)[C@H](CCCCN)NC(=O)[C@H](CSSC[C@H](NC(=O)[C@H]([C@@H](C)O)NC(=O)[C@H](Cc4c[nH]c5ccccc45)NC(=O)[C@H](CCCC)NC(=O)[C@H](Cc4c[nH]c5ccccc45)NC(=O)[C@H](CCCCN)NC(=O)[C@H](CCC(N)=O)NC1=O)C(=O)N[C@@H](CC(=O)O)C(=O)N[C@@H](CO)C(=O)N[C@@H](CCCCN)C(=O)N[C@@H](CCCNC(=N)N)C(=O)N[C@@H](C)C(=O)N3)NC(=O)[C@H](CCCNC(=N)N)NC(=O)[C@H](CC(C)C)NC(=O)CNC(=O)[C@H](CCC(=O)O)NC2=O` had an IC50 of 1.1 nM. The molecule `C#CC[C@H](N)C(=O)N[C@@H](Cc1ccc(O)cc1)C(=O)N[C@H]1CSSC[C@@H]2NC(=O)[C@@H]3CSSC[C@@H](C(=O)N[C@@H](CCCNC(=N)N)C(=O)N[C@@H](CCCCN)C(=O)N[C@@H](CCC(=O)O)C(=O)N[C@H](C(N)=O)[C@@H](C)CC)NC(=O)[C@H](Cc4c[nH]c5ccc(Br)cc45)NC(=O)[C@H](CC(C)C)NC(=O)[C@H](CCCCN)NC(=O)[C@H](CSSC[C@H](NC(=O)[C@H]([C@@H](C)O)NC(=O)[C@H](Cc4c[nH]c5ccccc45)NC(=O)[C@H](CCCC)NC(=O)[C@H](CCc4ccccc4)NC(=O)[C@H](CCCCN)NC(=O)[C@H](CCC(N)=O)NC1=O)C(=O)N[C@@H](CC(=O)O)C(=O)N[C@@H](CO)C(=O)N[C@@H](CCCCN)C(=O)N[C@@H](CCCNC(=N)N)C(=O)N[C@@H](C)C(=O)N3)NC(=O)[C@H](CCCNC(=N)N)NC(=O)[C@H](CC(C)C)NC(=O)CNC(=O)[C@H](CCC(=O)O)NC2=O` showed an IC50 of 1 nM. `C#CC[C@H](N)C(=O)N[C@@H](Cc1ccc(O)cc1)C(=O)N[C@H]1CSSC[C@@H]2NC(=O)[C@@H]3CSSC[C@@H](C(=O)N[C@@H](CCCNC(=N)N)C(=O)N[C@@H](CCCCN)C(=O)N[C@@H](CCC(=O)O)C(=O)N[C@H](C(N)=O)[C@@H](C)CC)NC(=O)[C@H](Cc4c[nH]c5cc(C)ccc45)NC(=O)[C@H](CC(C)C)NC(=O)[C@H](CCCCN)NC(=O)[C@H](CSSC[C@H](NC(=O)[C@H]([C@@H](C)O)NC(=O)[C@H](Cc4c[nH]c5ccccc45)NC(=O)[C@H](CCCC)NC(=O)[C@H](Cc4c[nH]c5ccccc45)NC(=O)[C@H](CCCCN)NC(=O)[C@H](CCC(N)=O)NC1=O)C(=O)N[C@@H](CC(=O)O)C(=O)N[C@@H](CO)C(=O)N[C@@H](CCCCN)C(=O)N[C@@H](CCCNC(=N)N)C(=O)N[C@@H](C)C(=O)N3)NC(=O)[C@H](CCCNC(=N)N)NC(=O)[C@H](CC(C)C)NC(=O)CNC(=O)[C@H](CCC(=O)O)NC2=O`: the IC50 turned out to be 19 nM. Molecule `C#CC[C@H](N)C(=O)N[C@@H](Cc1ccc(O)cc1)C(=O)N[C@H]1CSSC[C@@H]2NC(=O)[C@@H]3CSSC[C@@H](C(=O)N[C@@H](CCCNC(=N)N)C(=O)N[C@@H](CCCCN)C(=O)N[C@@H](CCC(=O)O)C(=O)N[C@@H](CCc4ccccc4)C(N)=O)NC(=O)[C@H](Cc4c[nH]c5ccc(Br)cc45)NC(=O)[C@H](CC(C)C)NC(=O)[C@H](CCCCN)NC(=O)[C@H](CSSC[C@H](NC(=O)[C@H]([C@@H](C)O)NC(=O)[C@H](Cc4c[nH]c5ccccc45)NC(=O)[C@H](CCCC)NC(=O)[C@H](Cc4c[nH]c5ccccc45)NC(=O)[C@H](CCCCN)NC(=O)[C@H](CCC(N)=O)NC1=O)C(=O)N[C@@H](CC(=O)O)C(=O)N[C@@H](CO)C(=O)N[C@@H](CCCCN)C(=O)N[C@@H](CCCNC(=N)N)C(=O)N[C@@H](C)C(=O)N3)NC(=O)[C@H](CCCNC(=N)N)NC(=O)[C@H](CC(C)C)NC(=O)CNC(=O)[C@H](CCC(=O)O)NC2=O` showed an IC50 of 1.1 nM. In turn, `C#CC[C@H](N)C(=O)N[C@@H](Cc1ccc(O)cc1)C(=O)N[C@H]1CSSC[C@@H]2NC(=O)[C@@H]3CSSC[C@@H](C(=O)N[C@@H](CCCNC(=N)N)C(=O)N[C@@H](CCCCN)C(=O)N[C@@H](CCC(=O)O)C(=O)N[C@H](C(N)=O)[C@@H](C)CC)NC(=O)[C@H](Cc4c[nH]c5ccccc45)NC(=O)[C@H](CC(C)C)NC(=O)[C@H](CCCCN)NC(=O)[C@H](CSSC[C@H](NC(=O)[C@H]([C@@H](C)O)NC(=O)[C@H](Cc4c[nH]c5ccccc45)NC(=O)[C@H](CCCC)NC(=O)[C@H](Cc4ccc5ccccc5c4)NC(=O)[C@H](CCCCN)NC(=O)[C@H](CCC(N)=O)NC1=O)C(=O)N[C@@H](CC(=O)O)C(=O)N[C@@H](CO)C(=O)N[C@@H](CCCCN)C(=O)N[C@@H](CCCNC(=N)N)C(=O)N[C@@H](C)C(=O)N3)NC(=O)[C@H](CCCNC(=N)N)NC(=O)[C@H](CC(C)C)NC(=O)CNC(=O)[C@H](CCC(=O)O)NC2=O` registered an IC50 of 22 nM. Molecule `C#CC[C@H](NC(=O)[C@@H](N)CCC(=O)O)C(=O)N[C@H]1CSSC[C@@H]2NC(=O)[C@@H]3CSSC[C@@H](C(=O)N[C@@H](CCCNC(=N)N)C(=O)N[C@@H](CCCCN)C(=O)N[C@@H](CCC(=O)O)C(=O)N[C@H](C(N)=O)[C@@H](C)CC)NC(=O)[C@H](Cc4c[nH]c5ccc(Br)cc45)NC(=O)[C@H](CC(C)C)NC(=O)[C@H](CCCCN)NC(=O)[C@H](CSSC[C@H](NC(=O)[C@H]([C@@H](C)O)NC(=O)[C@H](Cc4c[nH]c5ccccc45)NC(=O)[C@H](CCCC)NC(=O)[C@H](Cc4c[nH]c5ccccc45)NC(=O)[C@H](CCCCN)NC(=O)[C@H](CCC(N)=O)NC1=O)C(=O)N[C@@H](CC(=O)O)C(=O)N[C@@H](CO)C(=O)N[C@@H](CCCCN)C(=O)N[C@@H](CCCNC(=N)N)C(=O)N[C@@H](C)C(=O)N3)NC(=O)[C@H](CCCNC(=N)N)NC(=O)[C@H](CC(C)C)NC(=O)CNC(=O)[C@H](CCC(=O)O)NC2=O` gave an IC50 of 0.3 nM. In turn, `C#CC[C@H](N)C(=O)N[C@@H](Cc1ccc(O)cc1)C(=O)N[C@H]1CSSC[C@@H]2NC(=O)[C@@H]3CSSC[C@@H](C(=O)N[C@@H](CCCNC(=N)N)C(=O)N[C@@H](CCCCN)C(=O)N[C@@H](CCC(=O)O)C(=O)N[C@@H](CC4CCCCC4)C(N)=O)NC(=O)[C@H](Cc4c[nH]c5ccccc45)NC(=O)[C@H](CC(C)C)NC(=O)[C@H](CCCCN)NC(=O)[C@H](CSSC[C@H](NC(=O)[C@H]([C@@H](C)O)NC(=O)[C@H](Cc4c[nH]c5ccccc45)NC(=O)[C@H](CCCC)NC(=O)[C@H](Cc4c[nH]c5ccccc45)NC(=O)[C@H](CCCCN)NC(=O)[C@H](CCC(N)=O)NC1=O)C(=O)N[C@@H](CC(=O)O)C(=O)N[C@@H](CO)C(=O)N[C@@H](CCCCN)C(=O)N[C@@H](CCCNC(=N)N)C(=O)N[C@@H](C)C(=O)N3)NC(=O)[C@H](CCCNC(=N)N)NC(=O)[C@H](CC(C)C)NC(=O)CNC(=O)[C@H](CCC(=O)O)NC2=O` showed an IC50 of 0.6 nM. On to `C#CC[C@H](N)C(=O)N[C@@H](Cc1ccc(O)cc1)C(=O)N[C@H]1CSSC[C@@H]2NC(=O)[C@@H]3CSSC[C@@H](C(=O)N[C@@H](CCCNC(=N)N)C(=O)N[C@@H](CCCCN)C(=O)N[C@@H](CCC(=O)O)C(=O)N[C@H](C(N)=O)[C@@H](C)CC)NC(=O)[C@H](Cc4ccccc4)NC(=O)[C@H](CC(C)C)NC(=O)[C@H](CCCCN)NC(=O)[C@H](CSSC[C@H](NC(=O)[C@H]([C@@H](C)O)NC(=O)[C@H](Cc4c[nH]c5ccccc45)NC(=O)[C@H](CCCC)NC(=O)[C@H](Cc4c[nH]c5ccccc45)NC(=O)[C@H](CCCCN)NC(=O)[C@H](CCC(N)=O)NC1=O)C(=O)N[C@@H](CC(=O)O)C(=O)N[C@@H](CO)C(=O)N[C@@H](CCCCN)C(=O)N[C@@H](CCCNC(=N)N)C(=O)N[C@@H](C)C(=O)N3)NC(=O)[C@H](CCCNC(=N)N)NC(=O)[C@H](CC(C)C)NC(=O)CNC(=O)[C@H](CCC(=O)O)NC2=O`, for which it took 15 nM to reach half-maximal inhibition (IC50).

The term IC50 denotes the concentration at which inhibition is half-maximal.
